# Assay results from article PMC12390684 (Viruses, 2025).
# Numbered stars: 1 amine (or outer) side, 2 acyl side, 3 side chain; on linkers, the order of the positions; unused ones are H or OH. Bridge positions count the residues as written; N and C are the ends. Square brackets hold non-standard residues; d marks the D form. Peptide text beside a SMILES is read from it. I, II: the chains in the order shown. Actinocin(9to1) = Cc1c2oc3c(C)ccc(C(=O)[*:1])c3nc-2c(C(=O)[*:2])c(N)c1=O; dNMeL = CN[C@H](CC(C)C)C(=O)O; NMeV = CN[C@H](C(=O)O)C(C)C; Hiv = CC(C)[C@H](O)C(=O)O; Sar = CNCC(=O)O
# Biological target: IN-GCN2 interaction (6xHis-IN / GST-GCN2) (UniProt P04585+Q9P2K8)
# Sequence (Q9P2K8 192-1024, other chains not shown): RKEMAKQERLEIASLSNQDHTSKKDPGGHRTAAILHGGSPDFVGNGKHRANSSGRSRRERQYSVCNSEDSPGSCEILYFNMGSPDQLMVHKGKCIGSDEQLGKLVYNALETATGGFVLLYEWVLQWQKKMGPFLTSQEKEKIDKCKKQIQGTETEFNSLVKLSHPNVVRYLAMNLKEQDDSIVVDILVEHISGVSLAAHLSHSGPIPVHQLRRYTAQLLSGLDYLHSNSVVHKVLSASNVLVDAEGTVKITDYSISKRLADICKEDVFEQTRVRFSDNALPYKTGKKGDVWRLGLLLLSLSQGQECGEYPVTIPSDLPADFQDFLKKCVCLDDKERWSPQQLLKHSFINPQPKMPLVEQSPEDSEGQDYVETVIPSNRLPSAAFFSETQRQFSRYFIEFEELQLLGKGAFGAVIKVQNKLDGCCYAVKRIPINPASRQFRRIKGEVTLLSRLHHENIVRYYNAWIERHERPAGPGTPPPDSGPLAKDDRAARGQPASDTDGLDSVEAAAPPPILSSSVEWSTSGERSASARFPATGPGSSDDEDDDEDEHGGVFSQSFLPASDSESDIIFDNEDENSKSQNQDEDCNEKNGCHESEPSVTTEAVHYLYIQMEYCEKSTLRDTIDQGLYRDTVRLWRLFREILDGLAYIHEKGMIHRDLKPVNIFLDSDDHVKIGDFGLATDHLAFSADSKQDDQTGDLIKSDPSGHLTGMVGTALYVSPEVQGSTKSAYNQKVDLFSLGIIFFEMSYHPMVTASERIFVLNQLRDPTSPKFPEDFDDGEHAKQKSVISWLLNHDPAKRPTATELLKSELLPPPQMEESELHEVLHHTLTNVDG
# Assay: biochemical
# Format: binding, HIV-1 IN; human GCN2
# Details: screen, single dose 100 µM, single replicate; residual AlphaLISA signal normalized to DMSO control
row,Structure (SMILES),IN-GCN2 interaction (%)
1,"Cc1c2oc3c(C)ccc(C(=O)N[C@@H]4C(=O)N[C@H](C(C)C)C(=O)N5CCC[C@H]5C(=O)N(C)CC(=O)N(C)[C@@H](C(C)C)C(=O)O[C@@H]4C)c3nc-2c(C(=O)N[C@@H]2C(=O)N[C@H](C(C)C)C(=O)N3CCC[C@H]3C(=O)N(C)CC(=O)N(C)[C@@H](C(C)C)C(=O)O[C@@H]2C)c(N)c1=O [NSC3053] (I: T[dV]P[Sar][NMeV] / II: T[dV]P[Sar][NMeV]; ester I:1-I:C, II:1-II:C; linker I:N-II:N via Actinocin(9to1))",121.53
2,COC(=O)C1=CO[C@@H](C)[C@@H]2CN3CCc4c([nH]c5cc(OC)ccc45)[C@@H]3C[C@H]12 [NSC15624],43.70
3,O=c1oc2c(O)c(O)cc3c(=O)oc4c(O)c(O)cc1c4c23 [NSC407286],49.11
4,O=[N+]([O-])[O-].c1ccc2c(c1)[nH]c1c2cc[n+]2cc3c(cc12)CCCC3 [NSC21728],107.16
5,NC(=O)NCCC[C@H](N)C(=O)O [NSC27425],90.90
6,CO[C@H]1[C@@H](O)[C@@H](C)O[C@@H](OC2CCC3(C)C(CCC4C3C(O)CC3(C)C(C5=CC(=O)OC5)CCC43O)C2)[C@@H]1O (some centres unmarked) [NSC123977],127.41
7,COC(=O)c1nc(-c2ccc3c(n2)C(=O)C(N)=C(OC)C3=O)c(N)c(-c2ccc(OC)c(OC)c2O)c1C [NSC45384],82.84
8,CCCCCCCCCCCCCCCC(=O)OC[C@H]1O[C@@H](n2ccc(N)nc2=O)[C@@H](O)[C@@H]1O [NSC135962],92.71
9,COC1=CC(=O)OC(CCc2ccc3c(c2)OCO3)C1 (centres unmarked) [NSC23878],70.38
10,CC1(C)O[C@H]2CC(=O)OC[C@]23[C@H]2CC[C@@]4(C)[C@H](c5ccoc5)OC(=O)[C@H]5O[C@]54[C@]2(C)C(=O)C[C@@H]13 [NSC36508],112.07
11,COc1ccc2c(c1OC)-c1c(OC)c(OC)cc3c1[C@H](C2)NCC3 [NSC785187],70.21
12,CC(=O)OC1C(OC(C)=O)C2C(C)CC3OC(=O)C(C)C3CC2(C)C1OC(C)=O (centres unmarked) [NSC266071],100.86
13,CC1=C2C(=CC(C)(C)[C@@H]2O)C(=O)[C@](C)(O)C12CC2 [NSC400978],28.97
14,CCC1CN(C)C2Cc3c([nH]c4ccccc34)C(=O)CC1C2C(=O)OC (centres unmarked) [NSC108088],78.52
15,O=C(O)CC(CC(=O)O)C(=O)O [NSC2347],84.06
16,COc1cc(C)c2c(c1C=O)Oc1c(c(C)c(O)c3c1C(O)OC3=O)OC2=O (centres unmarked) [NSC87511],159.91
17,COc1cccc2c1C1COC3C4CC(C(=O)O)C(C(C2)N13)N4C.O=C(O)CC(O)(CC(=O)O)C(=O)O (centres unmarked) [NSC601422],152.09
18,CC(=O)Oc1ccc2ccc(=O)oc2c1OC(C)=O [NSC301683],152.96
19,CC1(C)CCC2=C(O1)C(=O)c1ccccc1C2=O [NSC26327],99.02
20,CC1(C)CCC[C@]2(C)C3=C(CC[C@@H]12)C(=O)OC3 [NSC375294],100.67
21,O=C1C(O)=C(c2ccccc2)C(=O)C(O)=C1c1ccccc1 [NSC44175],117.13
22,COc1ccc2c(c1O)-c1cccc3c1[C@@H](C2)N(C)CC3 [NSC785152],66.28

row,Structure (SMILES),IN-GCN2 interaction (%)
1,O=C(O)/C=C/CC[C@@H]1SC[C@@H]2NC(=O)N[C@@H]21 [NSC127473],109.13
2,COc1cc2c(cc1OC)C13CCN4CC5=CCOC(CC(=O)O)C(C5CC41)C3N2 (centres unmarked) [NSC121865],122.60
3,COC(=O)[C@@H]1[C@H]2C[C@H]3c4[nH]c5ccccc5c4CCN3C[C@@H]2CC[C@@H]1O [NSC19509],68.27
4,CC(C)[C@@](O)(C(=O)OCC1=CCN2CC[C@H](O)[C@@H]12)[C@H](C)O [NSC89937],65.06
5,CC(C)C[C@@H]1NC(=O)[C@H](C(C)C)NC(=O)[C@H](C(C)C)OC(=O)[C@@H](CC(C)C)N(C)C(=O)[C@@H](C(C)C)NC(=O)[C@H](C(C)C)OC1=O [NSC122224] (cyclo([Hiv]VL[Hiv][dV][dNMeL])),110.56
6,CCOC(=O)CCCCCCCCCCCCC1C=CCC1 (centres unmarked) [NSC38010],104.59
7,O=c1[nH]cnc2nc[nH]c12 [NSC14665],108.10
8,CC[C@]1(O)C[C@H]2CN(CCc3c([nH]c4ccccc34)[C@@](C(=O)OC)(c3cc4c(cc3OC)N(C=O)[C@H]3[C@@](O)(C(=O)OC)[C@H](OC(C)=O)[C@]5(CC)C=CCN6CC[C@]43[C@@H]65)C2)C1 [NSC67574],113.01
9,CO[C@@H]1[C@@H](O[C@@H]2O[C@H](C)[C@@H](O[C@H]3C[C@@](C)(O)[C@@H](OC(=O)CC(C)C)[C@H](C)O3)[C@H](N(C)C)[C@H]2O)[C@@H](CC=O)C[C@@H](C)C(=O)/C=C/[C@@H]2O[C@H]2C[C@@H](C)OC(=O)C[C@H]1OC(C)=O [NSC51001],99.20
10,COC(=O)[C@H]1[C@H]2C[C@H]3c4[nH]c5ccccc5c4CCN3C[C@@H]2CC[C@@H]1O [NSC407306],114.25
11,O=C(O)CCCCCCC[C@@H](O)[C@@H](O)CCCCCCO [NSC7668],129.82
12,CCOc1cc2c(cc1OC)CCN[C@H]2Cc1ccc(O)cc1 [NSC785185],75.32
13,C=Cc1cc(OC)c2c(c1)c(=O)oc1c2cc(OC)c2c(O)ccc(C3OC(C)C(O)C(C)(O)C3O)c21 (centres unmarked) [NSC354844],85.63
14,O=C([O-])c1nc(=O)[nH]c(=O)[nH]1.[K+] [NSC28841],85.56
15,CC(C)c1ccc2c(c1)CC[C@H]1[C@](C)(C(=O)O)CCC[C@]21C [NSC2952],107.26
16,C=C1C(=O)O[C@H]2C[C@@]3(C)O[C@@H]3CC/C(C)=C/[C@@H](OC(C)=O)[C@H]12 [NSC22070],135.82
17,C/C=C(/C)C(=O)O[C@H]1CCN2CC=C(COC(=O)[C@@](O)([C@H](C)OC)C(C)(C)O)[C@H]12 [NSC30625],106.60
18,NC(=O)NC1NC(=O)NC1=O (centres unmarked) [NSC7606],88.72
19,C[C@]12CC[C@@H]3c4ccc(O)cc4CC[C@H]3[C@@H]1CCC2=O [NSC9699],98.84
20,CCCCCCCCCCCCCCCCCCO [NSC5379],92.43
21,CN(C)[C@@H]1C(O)=C(C(N)=O)C(=O)[C@@]2(O)C(O)=C3C(=O)c4c(O)ccc(Cl)c4[C@@](C)(O)[C@H]3C[C@@H]12 [NSC13252],93.93
22,COc1ccc2c(c1O)-c1c3c(cc4c1[C@H](C2)N(C)CC4)OCO3 [NSC785188],77.54

row,Structure (SMILES),IN-GCN2 interaction (%)
1,COC(=O)[C@]1(C)CCC[C@]2(C)C3=CC(=O)[C@@]4(C(C)C)O[C@H]4[C@]3(O)CC[C@@H]12 [NSC337783],100.26
2,CC[C@@H](O)C[C@H]1CCC[C@@]2(C[C@@H]3OC(=O)/C=C/[C@@](C)(O)[C@@H](O)[C@H](C)[C@@H](O)[C@H](OC4CCC(N(C)C)C(C)O4)[C@@H](O)[C@](C)(O)CCCCC/C=C/[C@@H]4CC(C)(C)O[C@@]4(O)C[C@H](O2)[C@H]3C)O1 (some centres unmarked) [NSC76627],52.50
3,COc1c(O)cc2oc3cc(O)c(CC=C(C)C)c(O)c3c(=O)c2c1CC=C(C)C [NSC30552],60.59
4,C=C1C(=O)O[C@H]2[C@H]1CC/C(C)=C/CC[C@@]1(C)O[C@@H]21 [NSC157035],97.44
5,CC[C@]12CN3CCc4c([nH]c5ccccc45)[C@@](C(=O)OC)(c4cc5c(cc4OC)N(C)[C@H]4[C@@](O)(C(=O)OC)[C@H](OC(C)=O)[C@]6(CC)C=CCN7CC[C@]54[C@@H]76)C[C@@H](C3)[C@H]1O2 [NSC90636],49.62
6,C=C1CCO[C@]2([C@@H](O)[C@@](C)(O)CO)NC(=O)[C@@]1(O)NC2=O [NSC180516],114.16
7,CC1=CC2=C(C=O)C(=O)[C@](C)(O)[C@@H](O)C2=CO1 [NSC159632],82.72
8,COc1cc2cc(c1Cl)N(C)C(=O)C[C@H](OC(=O)[C@H](C)N(C)C(C)=O)[C@]1(C)O[C@H]1[C@H](C)[C@@H]1C[C@@](O)(NC(=O)O1)[C@H](OC)/C=C/C=C(\C)C2 [NSC153858],76.02
9,COc1ccc(/C=C/C(=O)c2ccccc2)cc1 [NSC11866],81.82
10,O=P1(N(CCCl)CCCl)NCCCO1 (centres unmarked) [NSC26271],117.66
11,C[C@]12CC[C@H]3[C@@H](CC[C@]4(O)C[C@@H](O)CC[C@]34/C=N/O)[C@@]1(O)CC[C@@H]2C1=COC(=O)C1 [NSC93373],116.21
12,COc1ccc(-c2cc(=O)c3ccc(O)cc3o2)cc1OC [NSC123383],118.02
13,COc1ccc2c(c1OC)-c1c3c(cc4c1[C@H](C2)N(C)CC4)OCO3 [NSC785162],46.45
14,C=C[C@H]1CN2CC[C@H]1C[C@H]2C(=O)c1ccnc2ccc(OC)cc12 [NSC15307],84.16
15,C=C1C(=O)C23C(O)C1CCC2C12CCCC(C)(COC(C)=O)C1C(O)C3(O)OC2 (centres unmarked) [NSC642099],95.31
16,CC(C)[C@@H]1NC(=O)[C@H](C)OC(=O)[C@@H](C(C)C)NC(=O)[C@@H](C(C)C)OC(=O)[C@H](C(C)C)NC(=O)[C@H](C)OC(=O)[C@@H](C(C)C)NC(=O)[C@@H](C(C)C)OC(=O)[C@H](C(C)C)NC(=O)[C@H](C)OC(=O)[C@@H](C(C)C)NC(=O)[C@@H](C(C)C)OC1=O [NSC122023],63.87
17,COc1cc2c(c(OC)c1O)-c1ccc(OC)c(=O)cc1[C@@H](NC(=O)C(F)(F)F)CC2 [NSC335989],89.57
18,O=C1c2cc(O)c(O)cc2OC(c2ccc(O)c(O)c2)C1O (centres unmarked) [NSC36398],108.22
19,COc1cccc(C=O)c1O [NSC2150],88.39
20,COc1ccc([C@@H]2CC(=O)c3c(O)cc(O[C@@H]4O[C@H](CO[C@@H]5O[C@@H](C)[C@H](O)[C@@H](O)[C@H]5O)[C@@H](O)[C@H](O)[C@H]4O)cc3O2)cc1O [NSC31048],142.54
21,O=C(O)C1OC(O)C(O)C(O)C1O (centres unmarked) [NSC9248],110.72
